From PubChem BioAssay (NCI)
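Five compound concentrations were applied to cells in 96-well plates for 48 hours; endpoints were derived by simple linear interpolation of the resulting dose-response curve. At the GI50, growth is halved. TGI marks complete inhibition of growth.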

Legend:
Assay in all cases: DTP human tumour cell line panel, 48 h
SNB-75 CNS = tested on: SNB-75 CNS
A498 renal = tested on: A498 renal
K-562 leukemia = tested on: K-562 leukemia
SK-MEL-2 melanoma = tested on: SK-MEL-2 melanoma
ACHN renal = tested on: ACHN renal
MDA-MB-231 breast = tested on: MDA-MB-231 breast
LOX IMVI melanoma = tested on: LOX IMVI melanoma
MDA-MB-468 breast = tested on: MDA-MB-468 breast
HS 578T breast = tested on: HS 578T breast
MOLT-4 leukemia = tested on: MOLT-4 leukemia
UACC-257 melanoma = tested on: UACC-257 melanoma
SN12C renal = tested on: SN12C renal
HCT-116 colon = tested on: HCT-116 colon
NCI-H23 lung = tested on: NCI-H23 lung
RXF 393 renal = tested on: RXF 393 renal
HOP-62 NSCLC = tested on: HOP-62 NSCLC
RPMI-8226 leukemia = tested on: RPMI-8226 leukemia
NCI-H460 lung = tested on: NCI-H460 lung
T-47D breast = tested on: T-47D breast
HL-60(TB) leukemia = tested on: HL-60(TB) leukemia
SF-539 CNS = tested on: SF-539 CNS
HOP-92 NSCLC = tested on: HOP-92 NSCLC
HT29 colon = tested on: HT29 colon
DU-145 prostate = tested on: DU-145 prostate
M14 melanoma = tested on: M14 melanoma
SNB-19 CNS = tested on: SNB-19 CNS
NCI/ADR-RES ovarian = tested on: NCI/ADR-RES ovarian
TK-10 renal = tested on: TK-10 renal
SF-295 CNS = tested on: SF-295 CNS
PC-3 prostate = tested on: PC-3 prostate
MCF7 breast = tested on: MCF7 breast
MDA-MB-435 = tested on: MDA-MB-435
SK-MEL-5 melanoma = tested on: SK-MEL-5 melanoma
HCT-15 colon = tested on: HCT-15 colon
UACC-62 melanoma = tested on: UACC-62 melanoma
NCI-H522 lung = tested on: NCI-H522 lung
KM12 colon = tested on: KM12 colon
A549 NSCLC = tested on: A549 NSCLC
UO-31 renal = tested on: UO-31 renal
CCRF-CEM leukemia = tested on: CCRF-CEM leukemia
COLO 205 colon = tested on: COLO 205 colon
OVCAR-5 ovarian = tested on: OVCAR-5 ovarian
CAKI-1 renal = tested on: CAKI-1 renal
U251 CNS = tested on: U251 CNS
NCI-H226 lung = tested on: NCI-H226 lung
OVCAR-4 ovarian = tested on: OVCAR-4 ovarian
IGROV1 ovarian = tested on: IGROV1 ovarian
SK-OV-3 ovarian = tested on: SK-OV-3 ovarian
OVCAR-3 ovarian = tested on: OVCAR-3 ovarian
OVCAR-8 ovarian = tested on: OVCAR-8 ovarian
HCC-2998 colon = tested on: HCC-2998 colon
MALME-3M melanoma = tested on: MALME-3M melanoma
786-0 renal = tested on: 786-0 renal
EKVX NSCLC = tested on: EKVX NSCLC
BT-549 breast = tested on: BT-549 breast
SF-268 CNS = tested on: SF-268 CNS
SW-620 colon = tested on: SW-620 colon
SR leukemia = tested on: SR leukemia
SK-MEL-28 melanoma = tested on: SK-MEL-28 melanoma

Question: Which GI50 (SNB-75 CNS) does the source give for `O=C(CS(=O)(=O)c1oc(-c2ccc(Cl)cc2)nc1S(=O)(=O)c1ccc(Cl)cc1)N1CCOCC1` here?
Answer: 4.89 µM

Question: And the TGI (SNB-75 CNS)?
Answer: 23.2 µM

Question: And the GI50 (A498 renal)?
Answer: 26.8 µM

Question: What about the TGI (A498 renal) of the same compound?
Answer: 93.4 µM

Question: What about the GI50 (K-562 leukemia) of the same compound?
Answer: 2.14 µM

Question: And the TGI (K-562 leukemia)?
Answer: > 100 µM

Question: And the GI50 (SK-MEL-2 melanoma)?
Answer: 16.7 µM

Question: And the TGI (SK-MEL-2 melanoma)?
Answer: 32.4 µM

Question: What about the GI50 (ACHN renal) of the same compound?
Answer: 3.17 µM

Question: What about the TGI (ACHN renal) of the same compound?
Answer: 11.3 µM

Question: And the GI50 (MDA-MB-231 breast)?
Answer: 6.7 µM

Question: And the TGI (MDA-MB-231 breast)?
Answer: 19.3 µM

Question: What about the GI50 (LOX IMVI melanoma) of the same compound?
Answer: 1.84 µM

Question: And the TGI (LOX IMVI melanoma)?
Answer: 4.27 µM

Question: What about the GI50 (MDA-MB-468 breast) of the same compound?
Answer: 2.52 µM

Question: What about the TGI (MDA-MB-468 breast) of the same compound?
Answer: 8.07 µM

Question: What about the GI50 (HS 578T breast) of the same compound?
Answer: 7.9 µM

Question: And the TGI (HS 578T breast)?
Answer: 36.4 µM

Question: What about the GI50 (MOLT-4 leukemia) of the same compound?
Answer: 2.54 µM

Question: What about the TGI (MOLT-4 leukemia) of the same compound?
Answer: 18.7 µM

Question: What about the GI50 (UACC-257 melanoma) of the same compound?
Answer: 15.4 µM

Question: What about the TGI (UACC-257 melanoma) of the same compound?
Answer: 30.2 µM

Question: And the GI50 (SN12C renal)?
Answer: 12.1 µM

Question: What about the TGI (SN12C renal) of the same compound?
Answer: 25.8 µM

Question: And the GI50 (HCT-116 colon)?
Answer: 3.04 µM

Question: What about the TGI (HCT-116 colon) of the same compound?
Answer: 11.4 µM

Question: And the GI50 (NCI-H23 lung)?
Answer: 13.4 µM

Question: And the TGI (NCI-H23 lung)?
Answer: 26.5 µM

Question: What about the GI50 (RXF 393 renal) of the same compound?
Answer: 2.58 µM

Question: And the TGI (RXF 393 renal)?
Answer: 8.82 µM

Question: What about the GI50 (HOP-62 NSCLC) of the same compound?
Answer: 18.1 µM

Question: And the TGI (HOP-62 NSCLC)?
Answer: 47.3 µM

Question: What about the GI50 (RPMI-8226 leukemia) of the same compound?
Answer: 5.2 µM

Question: And the TGI (RPMI-8226 leukemia)?
Answer: > 100 µM

Question: And the GI50 (NCI-H460 lung)?
Answer: 16.5 µM

Question: What about the TGI (NCI-H460 lung) of the same compound?
Answer: 39.4 µM

Question: And the GI50 (T-47D breast)?
Answer: 3.32 µM

Question: What about the TGI (T-47D breast) of the same compound?
Answer: 16.3 µM

Question: What about the GI50 (HL-60(TB) leukemia) of the same compound?
Answer: 4.49 µM

Question: What about the TGI (HL-60(TB) leukemia) of the same compound?
Answer: 34.9 µM

Question: And the GI50 (SF-539 CNS)?
Answer: 7.94 µM

Question: What about the TGI (SF-539 CNS) of the same compound?
Answer: 20.5 µM

Question: And the GI50 (HOP-92 NSCLC)?
Answer: 10.7 µM

Question: What about the TGI (HOP-92 NSCLC) of the same compound?
Answer: 28.6 µM

Question: And the GI50 (HT29 colon)?
Answer: 4.32 µM

Question: What about the TGI (HT29 colon) of the same compound?
Answer: 40.2 µM

Question: What about the GI50 (DU-145 prostate) of the same compound?
Answer: 12.3 µM

Question: What about the TGI (DU-145 prostate) of the same compound?
Answer: 24.8 µM

Question: And the GI50 (M14 melanoma)?
Answer: 6.75 µM

Question: What about the TGI (M14 melanoma) of the same compound?
Answer: 21 µM

Question: And the GI50 (SNB-19 CNS)?
Answer: 27.5 µM

Question: And the TGI (SNB-19 CNS)?
Answer: > 100 µM

Question: What about the GI50 (NCI/ADR-RES ovarian) of the same compound?
Answer: 14.5 µM

Question: What about the TGI (NCI/ADR-RES ovarian) of the same compound?
Answer: 31.2 µM

Question: And the GI50 (TK-10 renal)?
Answer: 14.3 µM

Question: What about the TGI (TK-10 renal) of the same compound?
Answer: 27.8 µM

Question: What about the GI50 (SF-295 CNS) of the same compound?
Answer: 16.9 µM

Question: What about the TGI (SF-295 CNS) of the same compound?
Answer: 54.7 µM

Question: And the GI50 (PC-3 prostate)?
Answer: 11.9 µM

Question: And the TGI (PC-3 prostate)?
Answer: 31.5 µM

Question: And the GI50 (MCF7 breast)?
Answer: 4 µM

Question: What about the TGI (MCF7 breast) of the same compound?
Answer: 18.5 µM

Question: What about the GI50 (MDA-MB-435) of the same compound?
Answer: 12 µM

Question: And the TGI (MDA-MB-435)?
Answer: 25.7 µM

Question: And the GI50 (SK-MEL-5 melanoma)?
Answer: 24.3 µM

Question: What about the TGI (SK-MEL-5 melanoma) of the same compound?
Answer: 86.3 µM

Question: And the GI50 (HCT-15 colon)?
Answer: 2.27 µM

Question: What about the TGI (HCT-15 colon) of the same compound?
Answer: 5.68 µM

Question: What about the GI50 (UACC-62 melanoma) of the same compound?
Answer: 11.1 µM

Question: What about the TGI (UACC-62 melanoma) of the same compound?
Answer: 23.8 µM

Question: What about the GI50 (NCI-H522 lung) of the same compound?
Answer: 1.64 µM

Question: And the TGI (NCI-H522 lung)?
Answer: 3.51 µM

Question: What about the GI50 (KM12 colon) of the same compound?
Answer: 29.5 µM

Question: What about the TGI (KM12 colon) of the same compound?
Answer: > 100 µM

Question: And the GI50 (A549 NSCLC)?
Answer: 45.9 µM

Question: And the TGI (A549 NSCLC)?
Answer: > 100 µM

Question: What about the GI50 (UO-31 renal) of the same compound?
Answer: 8.79 µM

Question: What about the TGI (UO-31 renal) of the same compound?
Answer: 21.1 µM

Question: What about the GI50 (CCRF-CEM leukemia) of the same compound?
Answer: 1.68 µM

Question: And the TGI (CCRF-CEM leukemia)?
Answer: 24.2 µM

Question: And the GI50 (COLO 205 colon)?
Answer: 11.6 µM

Question: And the TGI (COLO 205 colon)?
Answer: 55.9 µM

Question: And the GI50 (OVCAR-5 ovarian)?
Answer: 13.6 µM

Question: What about the TGI (OVCAR-5 ovarian) of the same compound?
Answer: 31.6 µM

Question: What about the GI50 (CAKI-1 renal) of the same compound?
Answer: 6.63 µM

Question: What about the TGI (CAKI-1 renal) of the same compound?
Answer: 19.4 µM

Question: What about the GI50 (U251 CNS) of the same compound?
Answer: 38 µM

Question: And the TGI (U251 CNS)?
Answer: > 100 µM

Question: What about the GI50 (NCI-H226 lung) of the same compound?
Answer: 22.9 µM

Question: And the TGI (NCI-H226 lung)?
Answer: 91 µM

Question: And the GI50 (OVCAR-4 ovarian)?
Answer: 12.7 µM

Question: What about the TGI (OVCAR-4 ovarian) of the same compound?
Answer: 27.6 µM

Question: What about the GI50 (IGROV1 ovarian) of the same compound?
Answer: 11 µM

Question: And the TGI (IGROV1 ovarian)?
Answer: 23.7 µM

Question: What about the GI50 (SK-OV-3 ovarian) of the same compound?
Answer: 40.8 µM

Question: What about the TGI (SK-OV-3 ovarian) of the same compound?
Answer: > 100 µM

Question: And the GI50 (OVCAR-3 ovarian)?
Answer: 3.3 µM

Question: What about the TGI (OVCAR-3 ovarian) of the same compound?
Answer: 10.5 µM

Question: What about the GI50 (OVCAR-8 ovarian) of the same compound?
Answer: 15.4 µM

Question: What about the TGI (OVCAR-8 ovarian) of the same compound?
Answer: 35.4 µM

Question: What about the GI50 (HCC-2998 colon) of the same compound?
Answer: 17.2 µM

Question: And the TGI (HCC-2998 colon)?
Answer: 40.8 µM

Question: And the GI50 (MALME-3M melanoma)?
Answer: 2.81 µM

Question: And the TGI (MALME-3M melanoma)?
Answer: 9.77 µM

Question: What about the GI50 (786-0 renal) of the same compound?
Answer: 7.65 µM

Question: And the TGI (786-0 renal)?
Answer: 21.8 µM

Question: And the GI50 (EKVX NSCLC)?
Answer: 12.1 µM

Question: And the TGI (EKVX NSCLC)?
Answer: 26.4 µM

Question: And the GI50 (BT-549 breast)?
Answer: 4.64 µM

Question: What about the TGI (BT-549 breast) of the same compound?
Answer: 16.8 µM

Question: And the GI50 (SF-268 CNS)?
Answer: 15.1 µM

Question: What about the TGI (SF-268 CNS) of the same compound?
Answer: 33.7 µM

Question: And the GI50 (SW-620 colon)?
Answer: 2.06 µM

Question: What about the TGI (SW-620 colon) of the same compound?
Answer: 4.8 µM

Question: What about the GI50 (SR leukemia) of the same compound?
Answer: 2.86 µM

Question: What about the TGI (SR leukemia) of the same compound?
Answer: > 100 µM

Question: What about the GI50 (SK-MEL-28 melanoma) of the same compound?
Answer: 12.1 µM

Question: And the TGI (SK-MEL-28 melanoma)?
Answer: 24.5 µM
